Data taken from ChEMBL document CHEMBL1649329, “Differential selection of single-step AmpC or efflux mutants of Pseudomonas aeruginosa by using cefepime, ceftazidime, or ceftobiprole” (2010).
Values after ≈ are worked out from the molar mass of the structure shown.

Tests used:
Type in all cases: functional
Pseudomonas aeruginosa [1] = assay: Antimicrobial activity against Pseudomonas aeruginosa OC 12070 expressing 11 fold elevated mexX expression and 10 fold elevated mexY expression by broth macrodilution method
Pseudomonas aeruginosa [2] = assay: Antimicrobial activity against Pseudomonas aeruginosa OC 12070 expressing 8 fold elevated AmpC expression by broth macrodilution method
Pseudomonas aeruginosa [3] = assay: Antimicrobial activity against Pseudomonas aeruginosa OC 12070 expressing 27 fold elevated mexX expression and 49 fold elevated mexY expression by broth macrodilution method
Pseudomonas aeruginosa [4] = assay: microbe, parasite or virus in culture; settings: OC 11678
Description: Antimicrobial activity against Pseudomonas aeruginosa OC 11678 expressing 27 fold elevated mexX expression and 16 fold elevated mexY expression by broth macrodilution method

Pseudomonas aeruginosa [5] = assay: Antimicrobial activity against Pseudomonas aeruginosa OC 11678 by broth macrodilution method
Pseudomonas aeruginosa [6] = assay: Antimicrobial activity against wild type Pseudomonas aeruginosa
Pseudomonas aeruginosa [7] = assay: Antimicrobial activity against Pseudomonas aeruginosa OC 11678 expressing 40 fold elevated AmpC expression by broth macrodilution method
Pseudomonas aeruginosa [8] = assay: Antimicrobial activity against Pseudomonas aeruginosa OC 12070 by broth macrodilution method
Pseudomonas aeruginosa [9] = assay: Antimicrobial activity against wild type Pseudomonas aeruginosa ATCC 27853 by broth macrodilution method
Pseudomonas aeruginosa [10] = assay: Antimicrobial activity against Pseudomonas aeruginosa OC 11678 expressing 36 fold elevated AmpC expression by broth macrodilution method
Pseudomonas aeruginosa [11] = assay: Antimicrobial activity against Pseudomonas aeruginosa OC 11678 expressing 32 fold elevated AmpC expression by broth macrodilution method
Pseudomonas aeruginosa [12] = assay: Antimicrobial activity against Pseudomonas aeruginosa OC 11678 expressing 33 fold elevated AmpC expression by broth macrodilution method
Pseudomonas aeruginosa [13] = assay: Antimicrobial activity against Pseudomonas aeruginosa OC 12261 by broth macrodilution method
Pseudomonas aeruginosa [14] = assay: Antimicrobial activity against Pseudomonas aeruginosa OC 11678 expressing 31 fold elevated mexX expression and 17 fold elevated mexY expression by broth macrodilution method
Pseudomonas aeruginosa [15] = assay: Antimicrobial activity against wild type Pseudomonas aeruginosa PAO1 by broth macrodilution method
Pseudomonas aeruginosa [16] = assay: Antimicrobial activity against Pseudomonas aeruginosa OC 12070 expressing 107 fold elevated mexX expression and 155 fold elevated mexY expression by broth macrodilution method
Pseudomonas aeruginosa [17] = assay: Antimicrobial activity against Pseudomonas aeruginosa OC 12070 expressing 65 fold elevated mexX expression and 106 fold elevated mexY expression by broth macrodilution method
Pseudomonas aeruginosa [18] = assay: Antimicrobial activity against Pseudomonas aeruginosa OC 11053 by broth macrodilution method
Pseudomonas aeruginosa [19] = assay: Antimicrobial activity against Pseudomonas aeruginosa OC 11678 expressing 31 fold elevated AmpC expression by broth macrodilution method
Pseudomonas aeruginosa [20] = assay: Antimicrobial activity against Pseudomonas aeruginosa OC 11678 expressing 9 fold elevated AmpC expression by broth macrodilution method
Pseudomonas aeruginosa [21] = assay: Antimicrobial activity against Pseudomonas aeruginosa OC 11678 expressing 34 fold elevated AmpC expression by broth macrodilution method
Pseudomonas aeruginosa [22] = assay: Antimicrobial activity against Pseudomonas aeruginosa OC 4351 by broth macrodilution method
Pseudomonas aeruginosa [23] = assay: Antimicrobial activity against Pseudomonas aeruginosa OC 11678 expressing 30 fold elevated AmpC expression by broth macrodilution method
Pseudomonas aeruginosa [24] = assay: Antimicrobial activity against Pseudomonas aeruginosa OC 12070 expressing 11 fold elevated AmpC expression by broth macrodilution method
Pseudomonas aeruginosa [25] = assay: Antimicrobial activity against Pseudomonas aeruginosa OC 12070 expressing 151 fold elevated mexX expression and 127 fold elevated mexY expression by broth macrodilution method
Pseudomonas aeruginosa [26] = assay: Antimicrobial activity against Pseudomonas aeruginosa OC 11492 by broth macrodilution method
Pseudomonas aeruginosa [27] = assay: Antimicrobial activity against Pseudomonas aeruginosa OC 12070 expressing 12 fold elevated mexX expression and 25 fold elevated mexY expression by broth macrodilution method
Pseudomonas aeruginosa [28] = assay: Antimicrobial activity against Pseudomonas aeruginosa OC 12070 expressing 7 fold elevated AmpC expression by broth macrodilution method
Pseudomonas aeruginosa [29] = assay: Antimicrobial activity against Pseudomonas aeruginosa OC 12070 expressing 36 fold elevated mexX expression and 39 fold elevated mexY expression by broth macrodilution method
Pseudomonas aeruginosa [30] = assay: Antimicrobial activity against Pseudomonas aeruginosa OC 12070 expressing 5 fold elevated AmpC expression by broth macrodilution method
Pseudomonas aeruginosa [31] = assay: Antimicrobial activity against Pseudomonas aeruginosa OC 12070 expressing 10 fold elevated mexX expression and 23 fold elevated mexY expression by broth macrodilution method
Pseudomonas aeruginosa [32] = assay: Antimicrobial activity against Pseudomonas aeruginosa OC 11678 expressing 15 fold elevated AmpC expression by broth macrodilution method
Pseudomonas aeruginosa [33] = assay: Antimicrobial activity against Pseudomonas aeruginosa OC 12070 expressing 37 fold elevated AmpC expression by broth macrodilution method
Pseudomonas aeruginosa [34] = assay: Antimicrobial activity against Pseudomonas aeruginosa OC 11678 expressing 29 fold elevated AmpC expression by broth macrodilution method
Pseudomonas aeruginosa [35] = assay: Antimicrobial activity against Pseudomonas aeruginosa OC 11678 expressing 71 fold elevated mexX expression and 43 fold elevated mexY expression by broth macrodilution method

SMILES: CO/N=C(\C(=O)N[C@@H]1C(=O)N2C(C(=O)[O-])=C(C[N+]3(C)CCCC3)CS[C@H]12)c1csc(N)n1 [CEFEPIME]
- MIC (Pseudomonas aeruginosa [1]): 8 µg/mL (≈ 16.6 µM)
- MIC (Pseudomonas aeruginosa [2]): 16 µg/mL (≈ 33.3 µM)
- MIC (Pseudomonas aeruginosa [3]): 8 µg/mL (≈ 16.6 µM)
- MIC (Pseudomonas aeruginosa [4]): 8 µg/mL (≈ 16.6 µM)
- MIC (Pseudomonas aeruginosa [5]): 8 µg/mL (≈ 16.6 µM)
- MIC50 (Pseudomonas aeruginosa [6]): 4 µg/mL (≈ 8.32 µM)
- MIC (Pseudomonas aeruginosa [7]): 32 µg/mL (≈ 66.6 µM)
- MIC (Pseudomonas aeruginosa [8]): 2 µg/mL (≈ 4.16 µM)
- MIC (Pseudomonas aeruginosa [9]): 2 µg/mL (≈ 4.16 µM)
- MIC (Pseudomonas aeruginosa [10]): 32 µg/mL (≈ 66.6 µM)
- MIC (Pseudomonas aeruginosa [11]): 32 µg/mL (≈ 66.6 µM)
- MIC (Pseudomonas aeruginosa [12]): 32 µg/mL (≈ 66.6 µM)
- MIC (Pseudomonas aeruginosa [13]): 4 µg/mL (≈ 8.32 µM)
- MIC (Pseudomonas aeruginosa [14]): 8 µg/mL (≈ 16.6 µM)
- MIC (Pseudomonas aeruginosa [15]): 2 µg/mL (≈ 4.16 µM)
- MIC (Pseudomonas aeruginosa [16]): 16 µg/mL (≈ 33.3 µM)
- MIC (Pseudomonas aeruginosa [17]): 16 µg/mL (≈ 33.3 µM)
- MIC (Pseudomonas aeruginosa [18]): 4 µg/mL (≈ 8.32 µM)
- MIC (Pseudomonas aeruginosa [19]): 32 µg/mL (≈ 66.6 µM)
- MIC (Pseudomonas aeruginosa [20]): 32 µg/mL (≈ 66.6 µM)
- MIC (Pseudomonas aeruginosa [21]): 32 µg/mL (≈ 66.6 µM)
- MIC (Pseudomonas aeruginosa [22]): 2 µg/mL (≈ 4.16 µM)
- MIC (Pseudomonas aeruginosa [23]): 32 µg/mL (≈ 66.6 µM)
- MIC (Pseudomonas aeruginosa [24]): 16 µg/mL (≈ 33.3 µM)
- MIC (Pseudomonas aeruginosa [25]): 8 µg/mL (≈ 16.6 µM)
- MIC (Pseudomonas aeruginosa [26]): 4 µg/mL (≈ 8.32 µM)
- MIC (Pseudomonas aeruginosa [27]): 8 µg/mL (≈ 16.6 µM)
- MIC (Pseudomonas aeruginosa [28]): 16 µg/mL (≈ 33.3 µM)
- MIC (Pseudomonas aeruginosa [29]): 8 µg/mL (≈ 16.6 µM)
- MIC (Pseudomonas aeruginosa [30]): 8 µg/mL (≈ 16.6 µM)
- MIC (Pseudomonas aeruginosa [31]): 8 µg/mL (≈ 16.6 µM)
- MIC (Pseudomonas aeruginosa [32]): 32 µg/mL (≈ 66.6 µM)
- MIC (Pseudomonas aeruginosa [33]): 16 µg/mL (≈ 33.3 µM)
- MIC (Pseudomonas aeruginosa [34]): 32 µg/mL (≈ 66.6 µM)
- MIC (Pseudomonas aeruginosa [35]): 32 µg/mL (≈ 66.6 µM)

SMILES: CC(C)(O/N=C(\C(=O)N[C@@H]1C(=O)N2C(C(=O)[O-])=C(C[n+]3ccccc3)CS[C@H]12)c1csc(N)n1)C(=O)O [CEFTAZIDIME]
- MIC (Pseudomonas aeruginosa [1]): 2 µg/mL (≈ 3.66 µM)
- MIC (Pseudomonas aeruginosa [2]): 32 µg/mL (≈ 58.5 µM)
- MIC (Pseudomonas aeruginosa [3]): 4 µg/mL (≈ 7.32 µM)
- MIC (Pseudomonas aeruginosa [4]): 4 µg/mL (≈ 7.32 µM)
- MIC (Pseudomonas aeruginosa [5]): 4 µg/mL (≈ 7.32 µM)
- MIC50 (Pseudomonas aeruginosa [6]): 2 µg/mL (≈ 3.66 µM)
- MIC (Pseudomonas aeruginosa [7]): 128 µg/mL (≈ 234 µM)
- MIC (Pseudomonas aeruginosa [8]): 2 µg/mL (≈ 3.66 µM)
- MIC (Pseudomonas aeruginosa [9]): 2 µg/mL (≈ 3.66 µM)
- MIC (Pseudomonas aeruginosa [10]): 64 µg/mL (≈ 117 µM)
- MIC (Pseudomonas aeruginosa [11]): 128 µg/mL (≈ 234 µM)
- MIC (Pseudomonas aeruginosa [12]): 128 µg/mL (≈ 234 µM)
- MIC (Pseudomonas aeruginosa [13]): 4 µg/mL (≈ 7.32 µM)
- MIC (Pseudomonas aeruginosa [14]): 4 µg/mL (≈ 7.32 µM)
- MIC (Pseudomonas aeruginosa [15]): 1 µg/mL (≈ 1.83 µM)
- MIC (Pseudomonas aeruginosa [16]): 16 µg/mL (≈ 29.3 µM)
- MIC (Pseudomonas aeruginosa [17]): 16 µg/mL (≈ 29.3 µM)
- MIC (Pseudomonas aeruginosa [18]): 1 µg/mL (≈ 1.83 µM)
- MIC (Pseudomonas aeruginosa [19]): 128 µg/mL (≈ 234 µM)
- MIC (Pseudomonas aeruginosa [20]): 64 µg/mL (≈ 117 µM)
- MIC (Pseudomonas aeruginosa [21]): 128 µg/mL (≈ 234 µM)
- MIC (Pseudomonas aeruginosa [22]): 1 µg/mL (≈ 1.83 µM)
- MIC (Pseudomonas aeruginosa [23]): 128 µg/mL (≈ 234 µM)
- MIC (Pseudomonas aeruginosa [24]): 32 µg/mL (≈ 58.5 µM)
- MIC (Pseudomonas aeruginosa [25]): 8 µg/mL (≈ 14.6 µM)
- MIC (Pseudomonas aeruginosa [26]): 2 µg/mL (≈ 3.66 µM)
- MIC (Pseudomonas aeruginosa [27]): 4 µg/mL (≈ 7.32 µM)
- MIC (Pseudomonas aeruginosa [28]): 64 µg/mL (≈ 117 µM)
- MIC (Pseudomonas aeruginosa [29]): 4 µg/mL (≈ 7.32 µM)
- MIC (Pseudomonas aeruginosa [30]): 16 µg/mL (≈ 29.3 µM)
- MIC (Pseudomonas aeruginosa [31]): 8 µg/mL (≈ 14.6 µM)
- MIC (Pseudomonas aeruginosa [32]): 64 µg/mL (≈ 117 µM)
- MIC (Pseudomonas aeruginosa [33]): 32 µg/mL (≈ 58.5 µM)
- MIC (Pseudomonas aeruginosa [34]): 128 µg/mL (≈ 234 µM)
- MIC (Pseudomonas aeruginosa [35]): 32 µg/mL (≈ 58.5 µM)

SMILES: Nc1nc(/C(=N/O)C(=O)N[C@@H]2C(=O)N3C(C(=O)O)=C(/C=C4\CCN([C@@H]5CCNC5)C4=O)CS[C@H]23)ns1 [CEFTOBIPROLE]
- MIC (Pseudomonas aeruginosa [1]): 8 µg/mL (≈ 15 µM)
- MIC (Pseudomonas aeruginosa [2]): 4 µg/mL (≈ 7.48 µM)
- MIC (Pseudomonas aeruginosa [3]): 16 µg/mL (≈ 29.9 µM)
- MIC (Pseudomonas aeruginosa [4]): 8 µg/mL (≈ 15 µM)
- MIC (Pseudomonas aeruginosa [5]): 4 µg/mL (≈ 7.48 µM)
- MIC50 (Pseudomonas aeruginosa [6]): 2 µg/mL (≈ 3.74 µM)
- MIC (Pseudomonas aeruginosa [7]): 4 µg/mL (≈ 7.48 µM)
- MIC (Pseudomonas aeruginosa [8]): 2 µg/mL (≈ 3.74 µM)
- MIC (Pseudomonas aeruginosa [9]): 2 µg/mL (≈ 3.74 µM)
- MIC (Pseudomonas aeruginosa [10]): 4 µg/mL (≈ 7.48 µM)
- MIC (Pseudomonas aeruginosa [11]): 4 µg/mL (≈ 7.48 µM)
- MIC (Pseudomonas aeruginosa [12]): 4 µg/mL (≈ 7.48 µM)
- MIC (Pseudomonas aeruginosa [13]): 4 µg/mL (≈ 7.48 µM)
- MIC (Pseudomonas aeruginosa [14]): 8 µg/mL (≈ 15 µM)
- MIC (Pseudomonas aeruginosa [15]): 2 µg/mL (≈ 3.74 µM)
- MIC (Pseudomonas aeruginosa [16]): 16 µg/mL (≈ 29.9 µM)
- MIC (Pseudomonas aeruginosa [17]): 16 µg/mL (≈ 29.9 µM)
- MIC (Pseudomonas aeruginosa [18]): 4 µg/mL (≈ 7.48 µM)
- MIC (Pseudomonas aeruginosa [19]): 4 µg/mL (≈ 7.48 µM)
- MIC (Pseudomonas aeruginosa [20]): 4 µg/mL (≈ 7.48 µM)
- MIC (Pseudomonas aeruginosa [21]): 4 µg/mL (≈ 7.48 µM)
- MIC (Pseudomonas aeruginosa [22]): 2 µg/mL (≈ 3.74 µM)
- MIC (Pseudomonas aeruginosa [23]): 4 µg/mL (≈ 7.48 µM)
- MIC (Pseudomonas aeruginosa [24]): 4 µg/mL (≈ 7.48 µM)
- MIC (Pseudomonas aeruginosa [25]): 16 µg/mL (≈ 29.9 µM)
- MIC (Pseudomonas aeruginosa [26]): 8 µg/mL (≈ 15 µM)
- MIC (Pseudomonas aeruginosa [27]): 16 µg/mL (≈ 29.9 µM)
- MIC (Pseudomonas aeruginosa [28]): 4 µg/mL (≈ 7.48 µM)
- MIC (Pseudomonas aeruginosa [29]): 16 µg/mL (≈ 29.9 µM)
- MIC (Pseudomonas aeruginosa [30]): 4 µg/mL (≈ 7.48 µM)
- MIC (Pseudomonas aeruginosa [31]): 16 µg/mL (≈ 29.9 µM)
- MIC (Pseudomonas aeruginosa [32]): 4 µg/mL (≈ 7.48 µM)
- MIC (Pseudomonas aeruginosa [33]): 2 µg/mL (≈ 3.74 µM)
- MIC (Pseudomonas aeruginosa [34]): 8 µg/mL (≈ 15 µM)
- MIC (Pseudomonas aeruginosa [35]): 32 µg/mL (≈ 59.9 µM)
